Measurements as given in ChEMBL document CHEMBL5724914, “Linking interpersonal differences in gut microbiota composition and drug biotransformation activity” (2024).

What was measured:
[1] = human gut metagenome, 24 h, 2 µM
[2] = (§1) The drug is tested on WLS-073 corresponding to human gut metagenome with ENA study accession number: PRJEB37062 and ENA sample accession number: ERS12561749 for biotransformation under anaerobic condition. The drug concentrations were measured over 9 timepoints collected between 0 and 24 hours of incubation by liquid-chromatography-coupled mass spectrometry (LC–MS); conditions: 2 µM
[3] = human gut metagenome, 24 h, 2 µM; remark: listed apart in the source
[4] = as §1, with “WLS-170” for “WLS-073”, “ERS12561762” for “ERS12561749”; conditions: 2 µM
[5] = human gut metagenome, 24 h, 2 µM; remark: listed apart in the source
[6] = as §1, with “Z-022” for “WLS-073”, “mouse” for “human”, “ERS12561821” for “ERS12561749”; conditions: 2 µM
[7] = as §1, with “WLS-350” for “WLS-073”, “ERS12561789” for “ERS12561749”; conditions: 2 µM
[8] = human gut metagenome, 24 h, 2 µM; remark: listed apart in the source
[9] = human gut metagenome, 24 h, 2 µM; remark: listed apart in the source
[10] = human gut metagenome, 24 h, 2 µM; remark: listed apart in the source
[11] = human gut metagenome, 24 h, 2 µM; remark: listed apart in the source
[12] = as §1, with “WLS-006” for “WLS-073”, “ERS12561741” for “ERS12561749”; conditions: 2 µM
[13] = human gut metagenome, 24 h, 2 µM; remark: listed apart in the source
[14] = human gut metagenome, 24 h, 2 µM; remark: listed apart in the source
[15] = as §1, with “WLS-010” for “WLS-073”, “ERS12561743” for “ERS12561749”; conditions: 2 µM
[16] = as §1, with “Z-028” for “WLS-073”, “mouse” for “human”, “ERS12561827” for “ERS12561749”; conditions: 2 µM
[17] = as §1, with “Z-007” for “WLS-073”, “rat” for “human”, “ERS12561807” for “ERS12561749”; conditions: 2 µM
[18] = human gut metagenome, 24 h, 2 µM; remark: listed apart in the source
[19] = as §1, with “WLS-240” for “WLS-073”, “ERS12561773” for “ERS12561749”; conditions: 2 µM
[20] = human gut metagenome, 24 h, 2 µM; remark: listed apart in the source
Note: call rule not given here.

Structure (SMILES) | Bacterial Biotransformation [1] | Bacterial Biotransformation [2] | Bacterial Biotransformation [3] | Bacterial Biotransformation [4] | Bacterial Biotransformation [5] | Bacterial Biotransformation [6] | Bacterial Biotransformation [7] | Bacterial Biotransformation [8] | Bacterial Biotransformation [9] | Bacterial Biotransformation [10] | Bacterial Biotransformation [11] | Bacterial Biotransformation [12] | Bacterial Biotransformation [13] | Bacterial Biotransformation [14] | Bacterial Biotransformation [15] | Bacterial Biotransformation [16] | Bacterial Biotransformation [17] | Bacterial Biotransformation [18] | Bacterial Biotransformation [19] | Bacterial Biotransformation [20]
Cc1ccc(S(=O)(=O)NC(=O)NN2CCCCCC2)cc1 [TOLAZAMIDE] | Compound metabolized | Compound metabolized | Compound NOT metabolized | Compound metabolized | Compound metabolized | Compound metabolized | Compound NOT metabolized | Compound metabolized | Compound metabolized | Compound NOT metabolized | Compound metabolized | Compound metabolized | Compound NOT metabolized | Compound metabolized | Compound metabolized | Compound metabolized | Compound NOT metabolized | Compound metabolized | Compound metabolized | Compound metabolized
CN/C(=N/CCSCc1nc[nH]c1C)NC#N [CIMETIDINE] | Compound metabolized | Compound NOT metabolized | Compound NOT metabolized | Compound metabolized | Compound metabolized | Compound NOT metabolized | Compound NOT metabolized | Compound metabolized | Compound NOT metabolized | Compound metabolized | Compound NOT metabolized | Compound metabolized | Compound NOT metabolized | Compound metabolized | Compound metabolized | Compound NOT metabolized | Compound NOT metabolized | Compound NOT metabolized | Compound metabolized | Compound metabolized
COc1c(C)c2c(c(O)c1C/C=C(\C)CCC(=O)OCCN1CCOCC1)C(=O)OC2 [MYCOPHENOLATE MOFETIL] | Compound metabolized | Compound metabolized | Compound metabolized | Compound metabolized | Compound metabolized | Compound metabolized | Compound metabolized | Compound metabolized | Compound metabolized | Compound metabolized | Compound metabolized | Compound metabolized | Compound NOT metabolized | Compound metabolized | Compound metabolized | Compound metabolized | Compound metabolized | Compound metabolized | Compound metabolized | Compound metabolized
CC(CN(C)C)CN1c2ccccc2CCc2ccccc21.O=C(O)/C=C\C(=O)O (stereo not given) [TRIMIPRAMINE MALEATE] | Compound metabolized | Compound NOT metabolized | Compound NOT metabolized | Compound metabolized | Compound metabolized | Compound NOT metabolized | Compound NOT metabolized | Compound metabolized | Compound metabolized | Compound metabolized | Compound metabolized | Compound metabolized | Compound metabolized | Compound metabolized | Compound metabolized | Compound NOT metabolized | Compound NOT metabolized | Compound NOT metabolized | Compound metabolized | Compound metabolized
CCN(CC)CC#CCOC(=O)C(O)(c1ccccc1)C1CCCCC1.Cl (stereo not given) [OXYBUTYNIN CHLORIDE] | Compound metabolized | Compound NOT metabolized | Compound metabolized | Compound metabolized | Compound metabolized | Compound metabolized | Compound metabolized | Compound metabolized | Compound metabolized | Compound metabolized | Compound metabolized | Compound metabolized | Compound metabolized | Compound metabolized | Compound metabolized | Compound NOT metabolized | Compound NOT metabolized | Compound metabolized | Compound metabolized | Compound metabolized
CC[C@@H](CO)NC(=O)[C@@H]1C=C2c3cccc4c3c(cn4C)C[C@H]2N(C)C1.O=C(O)/C=C\C(=O)O [METHYSERGIDE MALEATE] | Compound NOT metabolized | Compound NOT metabolized | Compound NOT metabolized | Compound metabolized | Compound metabolized | Compound NOT metabolized | Compound NOT metabolized | Compound NOT metabolized | Compound NOT metabolized | Compound NOT metabolized | Compound metabolized | Compound NOT metabolized | Compound NOT metabolized | Compound NOT metabolized | Compound NOT metabolized | Compound NOT metabolized | Compound NOT metabolized | Compound NOT metabolized | Compound NOT metabolized | Compound NOT metabolized
CN1CCOC(c2ccccc2)c2ccccc2C1 (stereo not given) [NEFOPAM] | Compound NOT metabolized | Compound NOT metabolized | Compound NOT metabolized | Compound NOT metabolized | Compound NOT metabolized | Compound NOT metabolized | Compound metabolized | Compound metabolized | Compound metabolized | Compound metabolized | Compound NOT metabolized | Compound metabolized | Compound NOT metabolized | Compound NOT metabolized | Compound metabolized | Compound NOT metabolized | Compound NOT metabolized | Compound NOT metabolized | Compound NOT metabolized | Compound metabolized
CN1CC(=O)N2[C@H](c3ccc4c(c3)OCO4)c3[nH]c4ccccc4c3C[C@@H]2C1=O | Compound metabolized | Compound NOT metabolized | Compound metabolized | Compound metabolized | Compound metabolized | Compound metabolized | Compound metabolized | Compound metabolized | Compound metabolized | Compound metabolized | Compound metabolized | Compound metabolized | Compound NOT metabolized | Compound metabolized | Compound metabolized | Compound NOT metabolized | Compound NOT metabolized | Compound metabolized | Compound metabolized | Compound metabolized
CCN(CC)CCOC(=O)C(Cc1cccc2ccccc12)CC1CCCO1.O=C(O)C(=O)O (stereo not given) [NAFRONYL OXALATE] | Compound NOT metabolized | Compound metabolized | Compound metabolized | Compound metabolized | Compound metabolized | Compound metabolized | Compound metabolized | Compound metabolized | Compound metabolized | Compound metabolized | Compound metabolized | Compound metabolized | Compound metabolized | Compound metabolized | Compound metabolized | Compound metabolized | Compound NOT metabolized | Compound metabolized | Compound metabolized | Compound metabolized
